Assay [1] relates to VZV. The experiment in a line: Plaque reduction assay, VZV clinical isolates in MRC-5 cells. It counts as cell-based, varicella zoster virus. The settings on record: read-out: IC50 VZV, Table 1, β-anomers. On the procedure: Clinical isolates of varicella zoster virus (VZV) were assayed in monolayers of MRC-5 cells. MRC-5 cells are derived from human embyonic lung tissue. A plaque reduction assay was used in which a suspension of the virus stock was used to infect monolayers of the cells in multiwell trays. a range of concentrations of the compound under test of known molarity was added to the wells. Plaque numbers at each concnetration were expressed as percentages of the control and a dose response curve was constructed. From these curves the 50% inhibitory concentration of each drug was determined.

Assay [2] concerns HSV2. Briefly: Plaque reduction assay, HSV-2 (strain 186) in cell monolayers. Particulars: Human alphaherpesvirus 2, Table 1; β-anomers; HSV-2 strain 186, plaque reduction. It counts as cell-based, Herpes Simplex Virus type 2. The procedure: (§1) Herpes Simplex Virus types 1 (HSV 1) and 2 (HSV2) were assayed in monolayers of Veto cells in multiwell trays. The virus strains used were SC16 and 186 for HSV-1 and HSV-2 respectively. Activity of compounds was determined in the plaque reduction assay, in which a cell monolayer was infected with a suspension of the appropirate HSV, and then overlaid with nutrient agarose in the form of a gel to ensure that there was no spread of virus throughout the culture. A range of concentrations of compound of known molarity was incorporated in the nutrient agarose overlay. Plaque numbers at each concentration were expressed as percentages of the control and a dose-response curve was drawn. From this curve the 50% inhibitory concentration (IC50) was estimated to be 0.66 μm for the compound of formula (I) in which X represents a 2-bromovinyl group.
Background: Plaque reduction counts the foci of infection that form in a cell layer.

Assay [3] relates to HSV1. The experiment in a line: Plaque reduction assay, HSV-1 (strain SC16) in cell monolayers. It is filed as cell-based, Herpes Simplex Virus type 1. Particulars: Human alphaherpesvirus 1, SC16, Table 1; β-anomers; HSV-1 strain SC16, plaque reduction. On the procedure:
as §1

Assay [4] deals with Herpes Simplex Virus. The experiment in a line: Plaque reduction assay, HSV (type not given). It counts as cell-based, Herpes Simplex Virus types 1 (HSV 1) and 2 (HSV2). Particulars: read-out: 50% inhibitory concentration (IC50). On the procedure:
as §1

Regarding `CCc1cn([C@H]2C[C@H](O)[C@@H](CO)S2)c(=O)[nH]c1=O` [X=CH2 CH3, Y=OH, 2'-Deoxy-5-ethyl-4'-thiouridine], the IC50 in assay [1] came out at 990 nM.

The compound `Nc1nc(=O)n([C@H]2C[C@H](O)[C@@H](CO)S2)cc1/C=C/Br` [X=CH=CHBr, Y=NH2, 2'-Deoxy-5-E-(2-bromovinyl)-4'-thiocytidine] yielded an IC50 in assay [2] of over 10000 nM. As to `O=c1[nH]c(=O)n([C@H]2C[C@H](O)[C@@H](CO)S2)cc1/C=C/Br` [X=CH=CHBr, Y=OH, E-5-(2-bromovinyl)-2'-deoxy-4'-thiouridine], the figures for the IC50 in assay [3], in assay [4] and in assay [2] were 600 nM, 660 nM and 10000 to 100000 nM, respectively.

These data come from US5521163A, “Antiviral pyrimidine nucleosides and methods for using same” (University of Birmingham, priority 1994, dated 1996).
